The supplement of paper PMC7840683
Where a name gives a salt, the structure may show the parent alone. ± gives the standard deviation of the averaged measurements.

System: HepaRG
Experiment: LDH release cytotoxicity, % of total lysis control; higher = more cytotoxic
Conditions: 48 h
Procedure, shortened: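 Percent cytotoxicity was scaled between on-plate vehicle and total lysis controls, then averaged over duplicate wells. The cells were single-lot HepaRG on collagen I-coated 96-well plates, exposed for 48 h to eight-point half-log test chemical series topping at 100 µM in serum-free induction medium with 0.5% DMSO. Total lysis wells got 0.1% Triton X, and LDH in 50 µL spent medium was read as resorufin fluorescence (CytoTox-ONE, Tecan Safire).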

| Compound | LDH release cytotoxicity (0.03162 µM) [%] | LDH release cytotoxicity (0.1 µM) [%] | LDH release cytotoxicity (0.3162278 µM) [%] | LDH release cytotoxicity (1 µM) [%] | LDH release cytotoxicity (3.16228 µM) [%] | LDH release cytotoxicity (10 µM) [%] | LDH release cytotoxicity (31.6228 µM) [%] | LDH release cytotoxicity (100 µM) [%] | LDH release cytotoxicity (0.031623 µM) [%] | LDH release cytotoxicity (0.316228 µM) [%] |
| --- | --- | --- | --- | --- | --- | --- | --- | --- | --- | --- |
| CCOS(=O)(=O)OCC [Diethyl sulfate] | -1.93 ± 0.2 | -1.47 ± 0.76 | -1.68 ± 0.27 | -2.05 ± 0.13 | -1.61 ± 0.19 | -1.77 ± 0.24 | -1.5 ± 0.21 | 0.71 ± 0.71 |  |  |
| O=C(OCCOCCOC(=O)c1ccccc1)c1ccccc1 [Diethylene glycol dibenzoate] | -0.909 ± 1 | -1.337 ± 0.0031 | -0.774 ± 0.13 | -1.03 ± 1.1 | -1.1 ± 0.042 | -0.826 ± 0.27 | -1.09 ± 0.2 | 0.38 ± 0.34 |  |  |
| COCCOCCOC [Diethylene glycol dimethyl ether] | -0.901 ± 0.75 | -2.67 ± 0.22 | -2.41 ± 0.75 | -2.68 ± 1.4 | -1.55 ± 0.41 | -0.488 ± 0.045 | -0.826 ± 0.12 | 0.75 ± 0.028 |  |  |
| COCCOCCO [Diethylene glycol monomethyl ether] | -0.428 ± 1.3 | -2.12 ± 0.55 | -0.798 ± 0.33 | -1.35 ± 0.45 | -0.999 ± 0.47 | -1.13 ± 0.19 | 0.0217 ± 1 | 1.02 ± 0.39 |  |  |
| OCCOCCO [Diethylene glycol] | -0.757 ± 0.022 | -1.02 ± 0.94 | -1.03 ± 0.3 | -0.601 ± 0.41 | -1.16 ± 0.75 | -0.563 ± 0.71 | -0.731 ± 0.0084 | 0.422 ± 0.8 |  |  |
| CCC(=C(CC)c1ccc(O)cc1)c1ccc(O)cc1 [Diethylstilbestrol] |  | -0.295 ± 1.4 |  | -2.18 ± 0.15 | -2.64 ± 1.2 | -2.24 ± 0.36 | -0.817 ± 0.032 | 0.74 ± 1.1 | -1.08 ± 0.25 | -1.31 ± 0.079 |
| CC1COC(Cn2cncn2)(c2ccc(Oc3ccc(Cl)cc3)cc2Cl)O1 (stereo not drawn) [Difenoconazole] | -1.39 ± 1.3 | -1.4 ± 0.88 | -1.37 ± 0.096 | -1.47 ± 0.12 | -0.57 ± 1.1 | -0.701 ± 0.24 | -1.41 ± 0.25 | -0.14 ± 0.82 |  |  |
| Cn1c(-c2ccccc2)cc(-c2ccccc2)[n+]1C [Difenzoquat metilsulfate] | -4.98 ± 0.42 | -4.55 ± 0.57 | -3.76 ± 0.46 | -4.22 ± 0.43 | -3.44 ± 0.93 | -3.6 ± 0.33 | -2.99 ± 2 | -1.18 ± 0.17 |  |  |
| COc1ccc(-n2nc(C(F)F)cc2-c2ccc(S(C)=O)cc2)cc1 (stereo not drawn) [Difpas-pyrazole] | -0.159 ± 0.56 | -0.696 ± 1.1 | -0.216 ± 0.65 | -0.962 ± 0.34 | 0.006 ± 0.28 | 0.216 ± 0.15 | 0.847 ± 0.57 | 78.66 ± 0.17 |  |  |
| CCCCCCOC(=O)c1ccccc1C(=O)OCCCCCC [Dihexyl phthalate] | -0.113 ± 0.13 | -2.29 ± 0.55 | -1.07 ± 0.072 | -1.78 ± 0.38 | -2.06 ± 0.53 | 4.57 ± 0.29 | 25.3 ± 3.5 | 81 ± 8.9 |  |  |
| CC(C)COC(=O)CCCCC(=O)OCC(C)C [Diisobutyl adipate] | -1.813 ± 0.015 | -2.01 ± 0.88 | -0.902 ± 0.055 | -2.26 ± 0.4 | -2.38 ± 0.66 | -0.129 ± 0.52 | 7.28 ± 1 | 46.4 ± 4.1 |  |  |
| CC(C)COC(=O)c1ccccc1C(=O)OCC(C)C [Diisobutyl phthalate] | -2.33 ± 0.23 | -2.4 ± 0.15 | -2.25 ± 0.78 | -2.06 ± 0.78 | -2.34 ± 1.2 | -1.43 ± 1.4 | -2.53 ± 0.83 | -1.03 ± 1.3 |  |  |
| CC(C)CCCCCCCOC(=O)CCCCC(=O)OCCCCCCCC(C)C [Diisodecyl hexanedioate] | -0.938 ± 0.57 | -1.86 ± 0.81 | -1.91 ± 0.57 | -1.58 ± 0.48 | -1.63 ± 0.72 | -1.13 ± 0.48 | -0.135 ± 0.66 | 0.966 ± 0.73 |  |  |
| CC(C)CCCCCCOC(=O)C1CCCCC1C(=O)OCCCCCCC(C)C (stereo not drawn) [Diisononyl cyclohexane-1,2-dicarboxylate] | -0.786 ± 0.8 | -0.599 ± 0.29 | -1.09 ± 0.054 | -0.000557 ± 0.59 | -0.402 ± 0.22 | 0.246 ± 0.61 | -0.258 ± 0.077 | 1.07 ± 0.34 |  |  |
| COCC(C)N(C(=O)CCl)c1c(C)csc1C (stereo not drawn) [Dimethenamid] |  | -3.31 ± 1.4 |  | -2.95 ± 1.9 | -2.64 ± 2.5 | -3.81 ± 0.44 | -2.28 ± 1 | 0.11 ± 0.34 | -1.73 ± 1.3 | -2.49 ± 1.9 |
| CC1=C(C)S(=O)(=O)CCS1(=O)=O [Dimethipin] | -2.35 ± 1 | -2.52 ± 0.16 | -2.59 ± 0.038 | -3.12 ± 0.25 | -2.6 ± 0.79 | -2.6 ± 0.88 | -2.51 ± 1.3 | -1.52 ± 0.84 |  |  |
